# Laboratory results taken from US9957264B2 (Merck Sharp & Dohme Corp., priority 2013, dated 2018).
# Target: JAK1 (recombinant purified GST-tagged catalytic domain) (Homo sapiens (Human), UniProt P23458)
# Assay: Jak Biochemical HTRF Assay (JAK1)
# Details: [ATP] 31.8 μM
# Procedure: Jak Biochemical HTRF Assay Protocol
# The ability of compounds to inhibit the activity of JAK1, JAK2, JAK3, and Tyk2 was measured using a recombinant purified GST-tagged catalytic domain for each enzyme (Invitrogen JAK1 #M4290, JAK2 #M4290, JAK3 #M4290, Tyk2 #M4290) in an HTRF format biochemical assay. The reactions employed a common peptide substrate, LCB-[…]-NH2 (in-house). The basic assay protocol is as follows: First, 250 nL of diluted compounds in DMSO were dispensed into the wells of a dry 384-well Black plate (Greiner #781076) using a Labcyte Echo 555 acoustic dispenser. Subsequent reagent additions employed an Agilent Bravo. […] After equilibration, 2 μL of 10×ATP in 1× assay buffer was added to initiate the kinase reaction and the plates were shaken and then incubated at room temperature for 120 minutes. At the end of the incubation, 20 μL of 2× stop buffer (streptavidin-Dylight 650 (Thermo #84547B/100 mL), Eu-tagged pY20 antibody (Perkin Elmer #AD0067), EDTA, HEPES, and Triton) was added to quench the reaction. Plates were shaken and centrifuged and then incubated 60 minutes at room temperature and then read on a Perkin Elmer Envision (λex=337 nm, λem=665 and 615 nm, TRF delay time=20 μs). HTRF signal=10,000*665 nm reading/615 nm reading. After normalization to untreated controls, the percent inhibition of the HTRF signal at each compound concentration was calculated. The plot of percent inhibition versus the log of compound concentration was fit with a 4-parameter dose response equation to calculate IC50 values.
# Final reaction conditions were:
# Examples of the instant invention were evaluated in JAK1 and JAK2 in vitro binding assays as described above. The following table tabulates the JAK1 IC50 values and JAK2 IC50 values disclosed for the instant invention.
# Chain of JAK1 (recombinant purified GST-tagged catalytic domain) (P23458 875-1153): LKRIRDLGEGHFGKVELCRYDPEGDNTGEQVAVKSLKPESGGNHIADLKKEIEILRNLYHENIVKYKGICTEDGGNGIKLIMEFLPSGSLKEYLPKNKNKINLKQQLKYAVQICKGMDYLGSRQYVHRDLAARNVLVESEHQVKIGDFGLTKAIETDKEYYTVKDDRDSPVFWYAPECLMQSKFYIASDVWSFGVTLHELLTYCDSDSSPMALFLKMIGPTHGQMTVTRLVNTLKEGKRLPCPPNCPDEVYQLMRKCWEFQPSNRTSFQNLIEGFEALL
row,SMILES,IC50
1,"CC(C)(C)OC(=O)[C@@H]1CC[C@@](CC#N)(n2nc(Nc3ccc(C(O)(C(C)(C)C)C(F)(F)F)cc3)c3c(=O)[nH]ccc32)CO1 (single isomer, unassigned) [Example 5-166, (2S,5S)-tert-butyl 5-(cyanomethyl)-5-(4-oxo-3-((4-((S or R)-1,1,1-trifluoro-2-hydroxy-3,3-dimethylbutan-2-yl)phenyl)amino)-4,5-dihydro-1H-pyrazolo[4,3-c]pyridin-1-yl)tetrahydro-2H-pyran-2-carboxylate]",1.28 nM
2,"CN(C)S(=O)(=O)c1ccc(Nc2nn(C3(CC#N)CCCCC3)c3cc[nH]c(=O)c23)cc1 [Example 5-79, 4-(1-(1-(cyanomethyl)cyclohexyl)-4-oxo-4,5-dihydro-1H-pyrazolo[4,3-c]pyridin-3-ylamino)-N,N-dimethylbenzene-sulfonamide]",0.78 nM
3,"CC(C)(C)N1Cc2cc(Nc3nn([C@]4(CC#N)CCOC[C@@H]4F)c4cc[nH]c(=O)c34)ccc2C1=O (single isomer, unassigned) [Example 5-259, 2-((3R,4R or 3S,4S)-4-(3-((2-(tert-butyl)-1-oxoisoindolin-5-yl)amino)-4-oxo-4,5-dihydro-1H-pyrazolo[4,3-c]pyridin-1-yl)-3-fluorotetrahydro-2H-pyran-4-yl)acetonitrile]",0.04 nM
4,"CC(C)(C)N1Cc2cc(Nc3nn([C@@]4(CC#N)CCOC[C@H]4F)c4cc[nH]c(=O)c34)ccc2C1=O (single isomer, unassigned) [Example 5-260, 2-((3S,4S or 3R,4R)-4-(3-(2-tert-butyl-1-oxoisoindolin-5-ylamino)-4-oxo-4,5-dihydropyrazolo[4,3-c]pyridin-1-yl)-3-fluoro-tetrahydro-2H-pyran-4-yl)acetonitrile]",0.26 nM
5,"N#CC[C@]1(n2nc(Nc3ccc4c(c3)CN(C3CCNCC3)S4(=O)=O)c3c(=O)[nH]ccc32)CCOC[C@H]1F (single isomer, unassigned) [Example 5-271, 2-[(3S,4S or 3R,4R)-4-(3-{[1,1-dioxo-2-(piperidin-4-yl)-3H-1,2-benzothiazol-5-yl]amino}-4-oxo-5H-pyrazolo[4,3-c]pyridin-1-yl)-3-fluorooxan-4-yl]acetonitrile]",0.25 nM
6,"N#CC[C@@]1(n2nc(Nc3ccc4c(c3)CN(C3CCNCC3)S4(=O)=O)c3c(=O)[nH]ccc32)CCOC[C@@H]1F (single isomer, unassigned) [Example 5-272, 2-((3R,4R or 3S,4S)-4-(3-((1,1-dioxido-2-(piperidin-4-yl)-2,3-dihydrobenzo [d]isothiazol-5-yl)amino)-4-oxo-4,5-dihydro-1H-pyrazolo[4,3-c]pyridin-1-yl)-3-fluorotetrahydro-2H-pyran-4-yl)acetonitrile]",0.06 nM
7,"CC(C)NS(=O)(=O)c1ccc(Nc2nn(C3(CC#N)CCN(C(=O)OC(C)(C)C)CC3)c3cc[nH]c(=O)c23)cc1 [Example 5-288, tert-butyl 4-(cyanomethyl)-4-(3-((4-(N-isopropylsulfamoyl)phenyl)amino)-4-oxo-4,5-dihydro-1H-pyrazolo[4,3-c]pyridin-1-yl)piperidine-1-carboxylate]",0.15 nM
8,"CC(C)(C)N1Cc2cc(Nc3nn([C@]4(CC#N)CCCOC4)c4cc[nH]c(=O)c34)ccc2S1(=O)=O [Example 5-178, [(3S)-3-{3-[(2-tert-butyl-1,1-dioxido-2,3-dihydro-1,2-benzisothiazol-5-yl)amino]-4-oxo-4,5-dihydro-1H-pyrazolo[4,3-c]pyridin-1-yl}tetrahydro-2H-pyran-3-yl] acetonitrile]",0.04 nM
9,"CC(C)(C)OC(=O)[C@@H]1CC[C@@](CC#N)(n2nc(Nc3ccc4c(c3)CN(C(C)(C)C)S4(=O)=O)c3c(=O)[nH]ccc32)CO1 [Example 5-41, (2S,5S)-tert-butyl 5-(3-((2-(tert-butyl)-1,1-dioxido-2,3-dihydrobenzo [d]isothiazol-5-yl)amino)-4-oxo-4,5-dihydro-1H-pyrazolo[4,3-c]pyridin-1-yl)-5-(cyanomethyl) tetrahydro-2H-pyran-2-carboxylate]",0.09 nM
10,"Cc1cc(Nc2nn([C@]3(CC#N)CC[C@@H](C(=O)OC(C)(C)C)OC3)c3cc[nH]c(=O)c23)ccc1C(=O)N1CCSC(C)C1 (single isomer, unassigned) [Example 5-158, (2S,5S)-tert-butyl 5-(cyanomethyl)-5-(3-((3-methyl-4-((S or R)-2-methylthiomorpholine-4-carbonyl)phenyl)amino)-4-oxo-4,5-dihydro-1H-pyrazolo[4,3-c]pyridin-1-yl)tetrahydro-2H-pyran-2-carboxylate]",0.28 nM
11,"Cc1cc(Nc2nn([C@]3(CC#N)CC[C@@H](C(=O)OC(C)(C)C)OC3)c3cc[nH]c(=O)c23)ccc1C(=O)N1CCC(O)(C(F)(F)F)C1 (single isomer, unassigned) [Example 5-160, (2S,5S)-tert-butyl 5-(cyanomethyl)-5-(3-((4-((S or R)-3-hydroxy-3-(trifluoromethyl)pyrrolidine-1-carbonyl)-3-methylphenyl)amino)-4-oxo-4,5-dihydro-1H-pyrazolo[4,3-c]pyridin-1-yl)tetrahydro-2H-pyran-2-carboxylate]",0.22 nM
12,"CN(C)S(=O)(=O)c1ccc(Nc2nn([C@@]3(CC#N)CCCC[C@H]3F)c3cc[nH]c(=O)c23)cc1 [Example 5-234, 4-({1-[(1R,2R)-1-(cyanomethyl)-2-fluorocyclohexyl]-4-oxo-4,5-dihydro-1H-pyrazolo [4,3-c]pyridin-3-yl}amino)-N,N-dimethyl-benzenesulfonamide]",0.63 nM
13,"CC1(C)Cc2cc(Nc3nn([C@]4(CC#N)CCCOC4)c4cc[nH]c(=O)c34)ccc2C1(O)C(F)(F)F (single isomer, unassigned) [Example 5-120, 2-((S)-3-(3-((S or R)-1-hydroxy-2,2-dimethyl-1-(trifluoromethyl)-2,3-dihydro-1H-inden-5-yl)amino)-4-oxo-4,5-dihydro-1H-pyrazolo[4,3-c]pyridin-1-yl)tetrahydro-2H-pyran-3-yl)acetonitrile]",0.07 nM

# Now from value to molecule:
row,IC50,SMILES
1,1.54 nM,"CN(C)S(=O)(=O)c1ccc(Nc2nn(C3(CC#N)CCN(Cc4cccc5[nH]ccc45)CC3)c3cc[nH]c(=O)c23)cc1 [Example 8-16, 4-({1-[4-(cyanomethyl)-1-(1H-indol-4-ylmethyl)piperidin-4-yl]-4-oxo-4,5-dihydro-1H-pyrazolo[4,3-c]pyridin-3-yl}amino)-N,N-dimethylbenzenesulfonamide]"
2,0.18 nM,"CC(OC(=O)N1CCC(CC#N)(n2nc(Nc3ccc(S(=O)(=O)N(C)C)cc3)c3c(=O)[nH]ccc32)CC1)C(F)(F)F (centres unmarked) [Example 11-8, 1,1,1-trifluoropropan-2-yl 4-(cyanomethyl)-4-(3-((4-(N,N-dimethylsulfamoyl)phenyl)amino)-4-oxo-4,5-dihydro-1H-pyrazolo[4,3-c]pyridin-1-yl)piperidine-1-carboxylate]"
3,0.44 nM,"Cc1ccc(CN2CCC(CC#N)(n3nc(Nc4ccc(S(=O)(=O)N(C)C)cc4)c4c(=O)[nH]ccc43)CC2)cc1 [Example 8-2, 4-({1-[4-(cyanomethyl)-1-(4-methylbenzyl)piperidin-4-yl]-4-oxo-4,5-dihydro-1H-pyrazolo[4,3-c]pyridin-3-yl}amino)-N,N-dimethylbenzenesulfonamide]"
4,0.07 nM,"CC(C)(C)OC(=O)[C@@H]1CC[C@@](CC#N)(n2nc(Nc3ccc4c(c3)NC(=O)C4(C)C)c3c(=O)[nH]ccc32)CO1 [Example 21-3, (2S,5S)-tert-butyl 5-(cyanomethyl)-5-(3-((3,3-dimethyl-2-oxoindolin-6-yl)amino)-4-oxo-4,5-dihydro-1H-pyrazolo[4,3-c]pyridin-1-yl)tetrahydro-2H-pyran-2-carboxylate]"
5,0.1 nM,"CN(C)S(=O)(=O)c1ccc(Nc2nn([C@]3(CC#N)CC[C@@H](N4CC(F)C4)CC3)c3cc[nH]c(=O)c23)cc1 [Example 18-29, Trans 4-((1-(1-(cyanomethyl)-4-(3-fluoroazetidin-1-yl)cyclohexyl)-4-oxo-4,5-dihydro-1H-pyrazolo[4,3-c]pyridin-3-yl)amino)-N,N-dimethylbenzenesulfonamide]"
6,2.62 nM,"CN(C)S(=O)(=O)c1ccc(Nc2nn([C@]3(CC#N)CC[C@H](N4CC(F)C4)CC3)c3cc[nH]c(=O)c23)cc1 [Example 18-30, Cis 4-((1-(1-(cyanomethyl)-4-(3-fluoroazetidin-1-yl)cyclohexyl)-4-oxo-4,5-dihydro-1H-pyrazolo[4,3-c]pyridin-3-yl)amino)-N,N-dimethylbenzenesulfonamide]"
7,0.11 nM,"CCC(=O)N1CCC(CC#N)(n2nc(Nc3ccc(S(=O)(=O)N(C)C)cc3)c3c(=O)[nH]ccc32)CC1 [Example 9-1, 4-({1-[4-(cyanomethyl)-1-propanoylpiperidin-4-yl]-4-oxo-4,5-dihydro-1H-pyrazolo[4,3-c]pyridin-3-yl}amino)-N,N-dimethylbenzenesulfonamide]"
